Reference: patent US20230381176A1, “A PHARMACEUTICAL COMPOSITION AND USE THEREOF FOR TREATMENT OF CANCER” (Ascentage Pharma (Suzhou) Co., Ltd., priority 2020, published 2023)

Key:
Format in all cases: in vivo, mouse
[1] = test system: PTK2-high liver PDX LI-03-1140; test: PTK2-high liver PDX model LI-03-1140, Compound 5 and Lenvatinib
Procedure: (§1) A subcutaneous xenograft tumor model of human tumor immunodeficient mice was established by cell inoculation: tumor cells in logarithmic growth phase were collected, counted, resuspended in 1×PBS, and the cell suspension concentration was adjusted to 2.5-5 ×10^7/mL. The tumor cells were inoculated subcutaneously in the right side of immunodeficient mice with a 1 mL syringe ([…]), 5-10×10^6/0.2 mL/mouse. All animal experiments were strictly in accordance with the specifications for the use and management of experimental animals in GenePharma Co., Ltd. and Suzhou Ascentage Pharma Co., Ltd. The calculation of relevant parameters refers to the Chinese NMPA “Guidelines for Non-Clinical Research Techniques of Cytotoxic Anti-tumor Drugs”.
(§2) Animal body weight and tumor size were measured twice weekly during the experiment. The state of the animal and the presence or absence of death were observed every day. The growth of tumor and the effects of treatment on normal behavior of animals were monitored routinely, specifically involving experimental animal activity, feeding and drinking, weight gain or loss, eyes, clothing hair and other abnormalities. The deaths and clinical symptoms observed during the experiment were recorded in the raw data. All operations for administration and measurement of mouse body weight and tumor volume were performed in a clean bench. According to the requirements of the experimental protocol, after the end of the last administration, plasma and tumor tissues were collected, weighed and photographed. The plasma and tumor samples were frozen at −80° C. for ready-to-use.
(§3) Tumor volume (TV) is calculated as: TV=a×b^2/2, wherein a and b represent the length and width of the tumor to be measured, respectively.
(§4) The relative tumor volume (RTV) is calculated as: RTV=Vt/V1, wherein V1 is the tumor volume at the start of grouping and administration, and Vt is the tumor volume measured on the t day after administration.
The evaluation index of anti-tumor activity is the relative tumor proliferation rate T/C (%), and the calculation formula thereof is: relative tumor proliferation rate T/C (%)=(TRTV/CRTV)×100%, TRTV is the RTV of treatment group, CRTV is the RTV of solvent control group.
(§5) Change of body weight (%)=(measured body weight−body weight at the start of grouping)/body weight at the start of grouping×100%.
(§6) A dose of drug is considered to be severely toxic if the body weight of mouse is reduced by more than 20% or the number of drug-related deaths exceeds 20%.
(§7) According to the description by Clarke R., Issues in experimental design and endpoint analysis in the study of experimental cytotoxic agents in vivo in breast cancer and other models [J]. Breast Cancer Research & Treatment, 1997, 46(2-3): 255-278, synergy analysis was evaluated using the following formula: synergy factor=((A/C)×(B/C))/(AB/C); A=RTV value of drug A alone group; B=RTV value of drug B alone group; C=RTV value of the solvent control group, and AB=RTV value of the A and B combination group.
Use of mRECIST (Gao et al., 2015) measured tumor responses included stable disease (SD), partial tumor regression (PR), and complete regression (CR), determined by comparing tumor volume change at day t to its baseline: tumor volume change (%)=(Vt−V1)/V1. The BestResponse was the minimum value of tumor volume change (%) for t≥10. For each time t, the average of tumor volume changes from t=1 to t was also calculated. BestAvgResponse was defined as the minimum value of this average for t≥10. The criteria for response (mRECIST) were adapted from RECIST criteria (Gao et al., 2015; Therasse et al., 2000) and defined as follows: mCR, BestResponse<−95% and BestAvg Response<−40%; mPR, BestResponse<−50% and BestAvgResponse<−20%; mSD, BestResponse<35% and BestAvgResponse<30%; mPD, not otherwise categorized. SD, PR, and CR were considered responders and used to calculate response rate (%). […] Body weight of animals were monitored simultaneously. […]

[2] = test system: PTK2 high ovarian PDX OV1385; test: PTK2 high ovarian PDX model OV1385, Compound 5 and carboplatin and/or paclitaxel
Procedure: as §1, §2, §3, §4, §5, §6, §7
(§8) Use of mRECIST (Gao et al., 2015) measured tumor responses included stable disease (SD), partial tumor regression (PR), and complete regression (CR), determined by comparing tumor volume change at day t to its baseline: tumor volume change (%)=(Vt−V1)/V1. The BestResponse was the minimum value of tumor volume change (%) for t≥10. For each time t, the average of tumor volume changes from t=1 to t was also calculated. BestAvgResponse was defined as the minimum value of this average for t≥10. The criteria for response (mRECIST) were adapted from RECIST criteria (Gao et al., 2015; Therasse et al., 2000) and defined as follows: mCR, BestResponse<−95% and BestAvg Response<−40%; mPR, BestResponse<−50% and BestAvgResponse<−20%; mSD, BestResponse<35% and BestAvgResponse<30%; mPD, not otherwise categorized. SD, PR, and CR were considered responders and used to calculate response rate (%). […] Body weight of animals were monitored simultaneously. The change in body weight was calculated based on the animal weight of the first day of dosing (day 1). Tumor volume and changes in body weight (%) were represented as the mean±standard error of the mean (SEM).

[3] = test system: PTK2 high ovarian PDX OV2018; test: PTK2 high ovarian PDX model OV2018, Compound 5 and paclitaxel
Procedure: as §1, §2, §3, §4, §5, §6, §7, §8

[4] = Compound 5 50 mg/kg, Lenvatinib 20 mg/kg, orally once per day, 28 days
[5] = best response, animals per class
[6] = Compound 5 50 mg/kg orally once per day, carboplatin 30 mg/kg i.p. once a week, paclitaxel 10 mg/kg i.v. once a week, 35 days
[7] = Compound 5 50 mg/kg orally once per day, paclitaxel 10 mg/kg i.v. once a week, 35 days

Q: `Cc1cc(Nc2ncc(Cl)c(Nc3ccccc3S(=O)(=O)C(C)C)n2)c(OC(C)C)cc1C1=CCN(C2CCOCC2)CC1` [Compound 5, 5-chloro-N^2-(2-isopropoxy-5-methyl-4-(1-(tetrahydro-2H-pyran-4-yl)-1,2,3,6-tetrahydropyridin-4-yl)phenyl)-N^4-(2-(isopropylsulfonyl)phenyl)pyrimidine-2,4-diamine] was tested. Which “RTV on Day 28 after administration (mean ± standard error)” value [1, 4] did it give?
A: 5.00 ± 0.17

Q: What about the “T/C on Day 28 after administration (%)” value [1, 4] of the same compound?
A: 92.08%

Q: And the “mRECIST on Day 28 after administration” value ([1]; Day 28, animals per class)?
A: 2/2 PD

Q: What about the mRECIST [1, 5] of the same compound?
A: 2/2 PD

Q: What about the “antitumor activity (conclusion in words)” value ([1]; mouse, in vivo) of the same compound?
A: no antitumor activity

Q: And the “RTV on Day 35 after administration (mean ± standard error)” value [2, 6]?
A: 4.10 ± 0.42

Q: And the “T/C on Day 35 after administration (%)” value [2, 6]?
A: 101.49%

Q: And the “mRECIST on Day 35 after administration” value ([2]; Day 35, animals per class)?
A: 2/2 PD

Q: And the mRECIST [2, 5]?
A: 2/2 PD

Q: And the “RTV on Day 35 after administration (mean ± standard error)” value [3, 7]?
A: 3.94 ± 0.41

Q: What about the “T/C on Day 35 after administration (%)” value [3, 7] of the same compound?
A: 162.80%

Q: What about the “mRECIST on Day 35 after administration” value ([3]; Day 35, animals per class) of the same compound?
A: 2/2 PD

Q: What about the mRECIST [3, 5] of the same compound?
A: 2/2 PD

Q: What about the “antitumor activity (conclusion in words)” value ([3]; mouse, in vivo) of the same compound?
A: no antitumor activity
